“Also recorded” adds a separate entry of the source. Like-named read-outs stand apart in the source and are kept apart here.
Key:
[1] = target: T1, c-Src (Homo sapiens, UniProt P12931); test: c-Src kinase inhibition assay (ADP-Glo Kinase Assay); assay type: biochemical; conditions: for inhibition at 100 µM / % Inhibition 100 µM: 100 µM compound; for inhibition at 100 µM: read-out: % Inhibition 100 µM; for IC50: read-out: ID50 (the source's name)
T1 construct: His6 (N); purchased Merck-Millipore 14–326
T1 sequence (P12931 whole entry): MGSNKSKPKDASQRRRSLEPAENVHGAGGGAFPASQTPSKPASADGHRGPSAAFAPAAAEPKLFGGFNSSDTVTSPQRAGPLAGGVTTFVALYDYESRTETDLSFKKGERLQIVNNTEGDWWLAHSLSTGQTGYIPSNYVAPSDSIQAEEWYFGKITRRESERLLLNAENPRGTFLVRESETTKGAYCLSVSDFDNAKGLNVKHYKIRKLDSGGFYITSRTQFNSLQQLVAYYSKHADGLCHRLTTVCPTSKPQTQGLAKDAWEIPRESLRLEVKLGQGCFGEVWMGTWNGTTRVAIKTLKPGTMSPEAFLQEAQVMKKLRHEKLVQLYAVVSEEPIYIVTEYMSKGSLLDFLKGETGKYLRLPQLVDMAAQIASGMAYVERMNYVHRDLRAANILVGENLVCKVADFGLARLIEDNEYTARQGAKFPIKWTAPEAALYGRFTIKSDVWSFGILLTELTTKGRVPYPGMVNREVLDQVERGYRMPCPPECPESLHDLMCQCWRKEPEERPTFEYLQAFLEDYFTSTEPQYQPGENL
Experimental: To avoid peptide adsorption to the plastic surface, protein low-binding tubes were used. ADP-Glo Kinase Assay (Promega) was then used to detect kinase activity accordingly with manufacturer’s instruction with minor modifications. In details, reactions were transferred to white 384 well-plates and stopped by adding 10 µL of ADP-Glo Reagent (Promega) for 50 min at rt. 20 μL of Detection Reagent (Promega) was then added for 30 min and the reaction read using GloMax Discover microplate reader (Promega). Data were plotted using GraphPad Prism 5.0. […] Compounds tested were assumed to act as fully ATP-competitive inhibitors. Therefore, Ki values were calculated accordingly to Equation (2).

[2] = test system: human MCF7 breast cancer cell line; test: Cytotoxicity, growth inhibition MTS assay; assay type: cell-based; conditions: mean ± SD, triplicate; for IC50: Homo sapiens, MCF7, 72 h exposure, read-out: MCF-7 (IC50); for MCF-7 (IC50, μM): 72 h exposure
Experimental: Cytotoxicity experiments were carried out using the human MCF7 breast cancer cell line (ATCC HTB-22). […] Compound potency was determined by a growth inhibition assay (CellTiter 96® Aqueous One Solution Cell Proliferation Assay MTS, Promega). 24 h after seeding in a 96-well plate, cells were exposed to the compounds (concentration range 1–100 µM) and 72 h later, 20 µL of 3–(4,5-dimethylthiazol-2-yl)-5–(3-carboxymethoxyphenyl)-2–(4-sulfophenyl)-2H-tetrazolium salt (MTS) was added to each well. […] Experiments were performed in triplicate.

[3] = 10 µM compound, Table 3, tested as E/Z mixtures
[4] = Table 3, tested as E/Z mixtures
[5] = Table 3, calculated from ID50 assuming fully ATP-competitive inhibition
[6] = Table 3, tested as E/Z mixtures, 100 µM

melting point | inhibition at 10 µM [1, 3] | inhibition at 100 µM [1, 4] | IC50 ([1]; Table 3, 100 μM ATP) | Structure (SMILES) | IC50 [2] | further results
231 to 232 °C |  |  |  | COc1cc2c(cc1OC)C(=Cc1ccc(-c3ccccc3)cc1)C(=O)N2 [Compound 30, 3-([1,1′-biphenyl]-4-ylmethylene)-5,6-dimethoxyindolin-2-one] |  | inhibition at 10 µM ([1]; 10 µM compound, Table 2): 9.39 ± 19.2%; inhibition at 100 µM ([1]; Table 2): 42 ± 8.91%
310 °C (dec.) | 35.7 ± 9.66% | 89 ± 1.35% | > 10 µM | N#Cc1ccc(C=C2C(=O)Nc3cc(Cl)ccc32)cc1 [Compound 32, 4-((6-chloro-2-oxoindolin-3-ylidene)methyl)benzonitrile] |  | 
322 to 323 °C (dec.) | 53 ± 18.1% | 69.94 ± 0.19% | 2.43 µM | O=C1Nc2cc(Cl)ccc2C1=Cc1ccc([N+](=O)[O-])cc1 [Compound 33, 6-chloro-3–(4-nitrobenzylidene)indolin-2-one] | > 100 µM | ID50 ([1]; Table 3, 100 μM ATP): single-digit micromolar; Ki [1, 5]: 1.64 µM; Ki (ATP competitive) [1, 5]: single-digit micromolar
330 to 331 °C (dec.) | 37.9 ± 0.35% | 86.9 ± 2.5% | > 10 µM | O=C1Nc2cc(Cl)ccc2C1=Cc1ccc(O)cc1 [Compound 35, 6-chloro-3–(4-hydroxybenzylidene)indolin-2-one] |  | 
271 to 272 °C (dec.) | 4.15 ± 1.28% | 47.2 ± 9.33% |  | O=C1Nc2cc(Cl)ccc2C1=Cc1ccc(C(=O)O)cc1 [Compound 36, 4-((6-chloro-2-oxoindolin-3-ylidene)methyl)benzoic acid] |  | % Inhibition 100 µM [1, 6]: very low activity
239 to 240 °C (dec.) | 16.9 ± 13.9% | 84.27 ± 0.82% |  | O=C1Nc2cc(Cl)ccc2C1=Cc1ccc(OCc2ccccc2)cc1 [Compound 37, 3–(4-(benzyloxy)benzylidene)-6-chloroindolin-2-one] |  | 
188 to 189 °C | 31.5 ± 3.16% | 53.6 ± 12.9% |  | O=C1Nc2cc(Cl)ccc2C1=Cc1cccc(Oc2ccccc2)c1 [Compound 38, 6-chloro-3–(3-phenoxybenzylidene)indolin-2-one] |  | 
158 to 159 °C | 71.7 ± 2.27% | 80.8 ± 6.47% | 3.24 µM | CCOC(=O)COc1ccc(C=C2C(=O)Nc3cc(Cl)ccc32)cc1 [Compound 43, Ethyl 2–(4-((6-chloro-2-oxoindolin-3-ylidene)methyl)phenoxy) acetate] | 85 ± 2 µM | % Inhibition 100 µM [1, 6]: good activity
201 to 202 °C | 41 ± 10.3% | 92.1 ± 3.84% |  | COC(=O)c1ccc(COc2ccc(C=C3C(=O)Nc4cc(Cl)ccc43)cc2)cc1 [Compound 44, Methyl-4-((4-((6-chloro-2-oxoindolin-3-ylidene)methyl)phenoxy)methyl)benzoate] |  | % Inhibition 100 µM [1, 6]: good activity
231 to 232 °C | 14.4 ± 2.09% | 34.4 ± 13.3% |  | O=C1Nc2cc(Cl)ccc2C1=Cc1ccc(OCC2CC2)cc1 [Compound 45, 6-Chloro-3–(4-(cyclopropylmethoxy)benzylidene)indolin-2-one] |  | % Inhibition 100 µM [1, 6]: almost inactive
197 °C (dec.) | 0% | 70% |  | O=C(O)COc1ccc(C=C2C(=O)Nc3cc(Cl)ccc32)cc1 [Compound 46, 2–(4-((6-Chloro-2-oxoindolin-3-ylidene)methyl)phenoxy)acetic acid] |  | % Inhibition 100 µM ([1]; Table 3, tested as E/Z mixtures, listed as C00041, 100 µM): 70.56 ± 4.80%
233 to 234 °C | 12.8 ± 1.32% | 87.7 ± 3.04% |  | O=C1Nc2cc(Cl)ccc2C1=Cc1ccc(-c2ccccc2)s1 [Compound 48, 6-chloro-3-((5-phenylthiophen-2-yl)methylene)indolin-2-one] |  | 
262 to 263 °C (dec.) | 53.9 ± 26.6% | 76.8 ± 9.22% | > 10 µM | O=C1Nc2cc(Cl)ccc2C1=Cc1cnc(Br)s1 [Compound 49, 3-((2-bromothiazol-5-yl)methylene)-6-chloroindolin-2-one] | 33 ± 2 µM | MCF-7 (IC50, μM) [2]: potency comparable to Dasatinib; also recorded: cytotoxicity comparable to that of the reference compound Dasatinib
238 to 239 °C | 41.2 ± 1.12% | 96.1 ± 1.42% | 9.14 µM | O=C1Nc2cc(Cl)ccc2C1=Cc1ccc2[nH]ccc2c1 [Compound 50, 3-((1H-indol-5-yl)methylene)-6-chloroindolin-2-one] | 68 ± 2 µM | Ki [1, 5]: 6.17 µM
 |  |  |  | Cc1nc(Nc2ncc(C(=O)Nc3c(C)cccc3Cl)s2)cc(N2CCN(CCO)CC2)n1 [Dasatinib, reference compound] | 27 ± 1 µM | 

Structure (SMILES) | melting point | inhibition at 10 µM [1, 3] | inhibition at 100 µM [1, 4] | IC50 ([1]; Table 3, 100 μM ATP) | IC50 [2] | further results
CN(C)c1ccc(C=C2C(=O)Nc3cc(Cl)ccc32)cc1 [Compound 34, 6-chloro-3–(4-(dimethylamino)benzylidene)indolin-2-one] | 253 to 254 °C | 85% | 75.7 ± 7.63% | 0.71 µM | > 100 µM | MCF-7 (IC50, μM) [2]: did not show any cytotoxic activity; % Inhibition 10 µM ([1]; 10 µM compound, Table 3, tested as E/Z mixtures, listed as C00033, 10 µM): 85.35 ± 6.98%; Ki [1, 5]: 0.48 µM

Reference: PMC9448371, “Synthesis and biological activity evaluation of 3-(hetero) arylideneindolin-2-ones as potential c-Src inhibitors” (Journal of Enzyme Inhibition and Medicinal Chemistry, 2022)
